{"source": "patent US12605446B2", "about": "“PSMA-targeted immunotherapies for cancers” (THE METHODIST HOSPITAL, priority 2020, dated 2026)", "molecules": {"B1": {"name": "#1352: anti-PSMA mouse monoclonal antibody of hybridoma #1352; VH SEQ ID NO: 24, VL SEQ ID NO: 26 (antibody, V domains shown)", "VH": "VKLQQSGPELEKPGASVKISCKASGYSFTGYNVNWVKQSNGKSLEWIGNIDPYHGGTTYNQKFEAKATLTVDKSSSTAYMQLKSLTSEDSAVYYCARSSRFDYWGQGTTLTVSS", "VL": "DIVMTQSHKFMSTSVGDRVNITCKASQDVGTAVAWYQQKPGQSPKFLIYWASTRHTGVPDRFTGSGSGTDFTLTISNVQSEDLADYFCHQYTSYPFTFGSGTKLEMKR"}, "B2": {"name": "#219: anti-PSMA mouse monoclonal antibody of hybridoma #219; VH SEQ ID NO: 12, VL SEQ ID NO: 14 (antibody, V domains shown)", "VH": "B1 VH with K2Q, I19M, K37R, S39N, Y53L, E64K, K73R, M80L, S84N", "VL": "B1 VL with F46L, Y91F, K103S"}, "B3": {"name": "#1207: anti-PSMA mouse monoclonal antibody of hybridoma #1207; VH SEQ ID NO: 28, VL SEQ ID NO: 30 (antibody, V domains shown)", "VH": "VKLQQSGPGLVKPSQSLSLTCAVTGYSITSDYAWNWIRKFPGNKLEWMGYISYSGRTTYNPSLESRISITRDTSKNQFFLQLNSVTTEDTATYYCARCYYGSSSRWYGMDYWGRGTSVAVSS", "VL": "IVLTQSPAIMSASPGVKVTMTCRASSSVDSSYLHWYQQKSGASPQVWIYSTSNLASGVPARFSGSGSGTSYSLTISSVEAEDAATYYCQQYSGYPLTFGGGTKLEIKR"}, "B4": {"name": "#1366: anti-PSMA mouse monoclonal antibody of hybridoma #1366; VH SEQ ID NO: 20, VL SEQ ID NO: 22 (antibody, V domains shown)", "VH": "VKLQESGPGLVAPSQSLSITCTVSGFSLTDYGVSWIRQPPGKGLEWLGVIWSDGNTYYNSPLKSRLSINKDNSKSQVFLKMNSLQTDDSAMYYCARHKVYTMDYWGQGTSVTVSS", "VL": "B3 VL with I1T, V16E, D29S, G41S, Q45K, V46L, S50R, V78L, G100A, I106L"}, "B5": {"name": "#1377: anti-PSMA mouse monoclonal antibody of hybridoma #1377; VH SEQ ID NO: 16, VL SEQ ID NO: 18 (antibody, V domains shown)", "VH": "VQLQQPGAALVRPGASVRLSCKASGYSFTYYWMNWVMQRPGQGLEWIGMIHPSDSETRLSQKFRDKATLTVDKSSSTVYMQLNSPTSDDSAVYYCARDGNFPYYALDYWGQGTSVTVSS", "VL": "DVVLTQAPLSLPVSLGDQASISCRSSQSLEYSNGNTYLHWYLQKPGQSPELLIYTVSNRFSGVPDRFSGSGSGTDFTLKIHRVEAEDLGVYFCSQSTHVPTFGGGTKLEIKR"}}, "key": {"[1]": {"test_system": "PSMA expression in LNCaP cells", "assay": "PSMA expression after antiandrogen or androgen treatment, LNCaP", "format": "cell-based"}, "[2]": {"test_system": "PSMA expression in VCaP cells", "assay": "PSMA expression after antiandrogen or androgen treatment, VCaP", "format": "cell-based"}, "[3]": {"test_system": "PSMA-positive LNCaP cells", "assay": "Flow cytometric binding of anti-PSMA mAbs to prostate cancer cells", "settings": "mixed PC3 and LNCaP cells, 20 μg antibody, FITC anti-mouse IgG secondary antibody", "protocol": "PC3 cells and […] cells are mixed and incubated with 20 μg of J591, our home-made mAb #1352, or […] as a negative control. Next, the cells were incubated with FITC anti-mouse IgG secondary antibody (Biolegend, cat #406001), followed by flow cytometric analysis.\n(A2). Development of anti-PSMA mAbs and construction of PSMA-CARs. The process of PSMA-CAR T cell therapy development is shown in the flowchart (FIG. 13A). PSMA extracellular domain was produced in baculovirus-insect cell expression system as reported. Purified recombinant PSMA protein was used to immunized BALB/c mice. Out of 38 ELISA-positive hybridomas, seven were confirmed by flow cytometry for their antibody-specific binding to PSMA-positive LNCaP and VCaP cells, but not to PSMA-negative PC3 cells."}, "[4]": {"test_system": "PSMA-positive prostate cancer cell lines LNCaP and VCaP", "assay": "Murine FCγRIII ADCC reporter bioassay", "format": "cell-based", "settings": "in vitro ADCC assay"}}, "note": "Where a chain is given by its changes, count along the chain named."}
{"molecule": "CNC(=O)c1ccc(N2C(=S)N(c3ccc(C#N)c(C(F)(F)F)c3)C(=O)C2(C)C)cc1F", "note": "[enzalutamide]", "values": [{"measurement": "PSMA mRNA levels", "setting": "[1]; 10 μM enzalutamide, 48 hours", "result": "increased"}, {"measurement": "PSMA protein levels", "setting": "[1]; Enzalutamide, 72 hrs", "result": "increased"}, {"measurement": "PSMA mRNA levels", "setting": "[2]; 10 μM enzalutamide, 48 hours", "result": "increased"}, {"measurement": "PSMA protein levels", "setting": "[2]; Enzalutamide, 72 hrs", "result": "increased"}]}
{"molecule": "C[C@]1(O)CC[C@H]2[C@@H]3CCC4=CC(=O)CCC4=C3C=C[C@@]21C", "note": "[R1881]", "values": [{"measurement": "PSMA mRNA levels", "setting": "[1]; 10 nM R1881", "result": "reduced"}, {"measurement": "PSMA mRNA levels", "setting": "[2]; 10 nM R1881", "result": "reduced"}]}
{"molecule": "B1", "values": [{"measurement": "binding to LNCaP cells by flow cytometry", "setting": "[3]", "result": "detected as the FITC positive cells"}, {"measurement": "induction of ADCC activity", "setting": "[4]", "result": "most potent"}]}
{"molecule": "B2", "values": [{"measurement": "binding to LNCaP cells by flow cytometry", "setting": "[3]", "result": "bind to LNCaP cells with high affinity"}]}
{"molecule": "B3", "values": [{"measurement": "binding to LNCaP cells by flow cytometry", "setting": "[3]", "result": "bind to LNCaP cells with high affinity"}]}
{"molecule": "B4", "values": [{"measurement": "binding to LNCaP cells by flow cytometry", "setting": "[3]", "result": "bind to LNCaP cells with high affinity"}]}
{"molecule": "B5", "values": [{"measurement": "binding to LNCaP cells by flow cytometry", "setting": "[3]", "result": "bind to LNCaP cells with high affinity"}]}
